This passage reports MIC results from patent publication US8106072B2, “7- (4-substituted-3-cyclopropylaminomethyl-1-pyrrolidinyl) quinolonecarboxylic acid derivative” (Kyorin Pharmaceutical Co., Ltd., priority 2003, dated 2012).

What all share (assay): In vitro antibacterial activity (MIC, agar plate dilution)
Holding throughout (format): cell-based

One experiment relates to S. aureus Smith. As to conditions: Staphylococcus aureus, Mueller-Hinton agar. On the procedure:
(§1) The in-vitro antibacterial activity of the compound of the present invention, as measured by the minimum inhibitory concentration (MIC), was determined by the agar plate dilution technique using Mueller-Hinton agar medium. The technique met the criteria specified by the National Committee for Clinical Laboratory Standard (1997) [NCCLS. Methods for Dilution Antibacterial Susceptibility Tests for Bacteria that grow Aerobically—Forth Edition: Approved Standard m7-A4. NCCLS, Villanova, Pa.]. For Streptococcus pneumonia and Enterococcus, the MIC values were determined by using Muller-Hinton agar supplemented with 5% defibrinated horse blood.

For a further experiment, the system named is E. faecalis IID682. As to conditions: Enterococcus faecalis, Muller-Hinton agar supplemented with 5% defibrinated horse blood. As for the experimental part:
as §1

The next experiment deals with S. aureus MS16401. Conditions: Staphylococcus aureus, S. aureus MS16401 (quinolone-resistant S. aureus), Mueller-Hinton agar. On the procedure: as §1
The next experiment concerns S. pneumoniae Type III. Conditions: Streptococcus pneumoniae, Muller-Hinton agar supplemented with 5% defibrinated horse blood. On the procedure:
as §1

The next experiment deals with S. aureus MR5867. Conditions: Staphylococcus aureus, S. aureus MR5867 (methicillin-resistant S. aureus), Mueller-Hinton agar. As for the experimental part: as §1

In brackets after ≈: the same amount, converted by molar mass.

For orientation: MIC means the least concentration at which growth counts as inhibited. A low value points to a more susceptible organism. Regarding `COc1c(N2C[C@H](CNC3CC3)[C@H](F)C2)ccc2c(=O)c(C(=O)O)cn(C3CC3)c12` [Example 2, 1-cyclopropyl-7-[(3S,4S)-3-cyclopropylaminomethyl-4-fluoro-1-pyrrolidinyl]-1,4-dihydro-8-methoxy-4-oxo-3-quinolinecarboxylic acid], the minimum inhibitory concentration (MIC) in the experiment with S. aureus Smith is 8 µg/mL (≈ 19.3 µM); in the experiment with E. faecalis IID682, 125 µg/mL (≈ 301 µM); against S. aureus MS16401 it was 31 µg/mL (≈ 74.6 µM); against S. pneumoniae Type III it was 31 µg/mL (≈ 74.6 µM); in the experiment on S. aureus MR5867, 16 µg/mL (≈ 38.5 µM).
Take `O=C(O)c1cn(C2CC2)c2c(OC(F)F)c(N3C[C@H](CNC4CC4)[C@H](F)C3)ccc2c1=O` [Example 4, 1-cyclopropyl-7-[(3S,4S)-3-cyclopropylaminomethyl-4-fluoro-1-pyrrolidinyl]-8-difluoromethoxy-1,4-dihydro-4-oxo-3-quinolinecarboxylic acid]: the MIC against S. aureus Smith worked out at 16 µg/mL (≈ 35.4 µM); in the experiment on E. faecalis IID682, 500 µg/mL (≈ 1110 µM); in the experiment with S. aureus MS16401 it was 63 µg/mL (≈ 140 µM); in the experiment on S. pneumoniae Type III, 63 µg/mL (≈ 140 µM); with S. aureus MR5867 it was 31 µg/mL (≈ 68.7 µM).
Turning to `COc1c(N2C[C@H](CNC3CC3)[C@@H](C)C2)ccc2c(=O)c(C(=O)O)cn(C3CC3)c12` [Example 7, 1-cyclopropyl-7-[(3S,4R)-3-cyclopropylaminomethyl-4-methyl-1-pyrrolidinyl]-1,4-dihydro-8-methoxy-4-oxo-3-quinolinecarboxylic acid], the minimal inhibitory concentration (MIC) with S. aureus Smith turned out to be 31 µg/mL (≈ 75.3 µM); in the experiment on E. faecalis IID682 it was 250 µg/mL (≈ 608 µM); against S. aureus MS16401, 125 µg/mL (≈ 304 µM); against S. pneumoniae Type III it was 63 µg/mL (≈ 153 µM); in the experiment with S. aureus MR5867, 63 µg/mL (≈ 153 µM).
In the case of `COc1c(N2C[C@@H](CNC3CC3)[C@H](C)C2)c(F)cc2c(=O)c(C(=O)O)cn(C3CC3)c12` (relative stereo) [Example 5, 1-cyclopropyl-7-(trans-3-cyclopropylaminomethyl-4-methyl-1-pyrrolidinyl)-6-fluoro-1,4-dihydro-8-methoxy-4-oxo-3-quinolinecarboxylic acid], the MIC against S. aureus Smith amounted to 8 µg/mL (≈ 18.6 µM); against E. faecalis IID682, 125 µg/mL (≈ 291 µM); against S. aureus MS16401, 16 µg/mL (≈ 37.3 µM); with S. pneumoniae Type III it was 31 µg/mL (≈ 72.2 µM); in the experiment on S. aureus MR5867 it was 8 µg/mL (≈ 18.6 µM).
Turning to `COc1c(N2C[C@@H](CNC3CC3)[C@H](C(F)(F)F)C2)c(F)cc2c(=O)c(C(=O)O)cn(C3CC3)c12` (relative stereo) [Example 6, 1-cyclopropyl-7-(trans-3-cyclopropylaminomethyl-4-trifluoromethyl-1-pyrrolidinyl)-6-fluoro-1,4-dihydro-8-methoxy-4-oxo-3-quinolinecarboxylic acid], the minimum inhibitory concentration (MIC) with S. aureus Smith is 31 µg/mL (≈ 64.1 µM); in the experiment with E. faecalis IID682 it was 250 µg/mL (≈ 517 µM); against S. aureus MS16401, 63 µg/mL (≈ 130 µM); in the experiment on S. pneumoniae Type III, 63 µg/mL (≈ 130 µM); in the experiment with S. aureus MR5867 it was 8 µg/mL (≈ 16.5 µM).
For the compound `COc1c(N2C[C@@H](CNC3CC3)[C@H](C)C2)ccc2c(=O)c(C(=O)O)cn(C3CC3)c12` [Example 8, 1-cyclopropyl-7-[(3R,4S)-3-cyclopropylaminomethyl-4-methyl-1-pyrrolidinyl]-1,4-dihydro-8-methoxy-4-oxo-3-quinolinecarboxylic acid], the minimum inhibitory concentration (MIC) against S. aureus Smith is 31 µg/mL (≈ 75.3 µM); in the experiment on E. faecalis IID682, 500 µg/mL (≈ 1220 µM); in the experiment on S. aureus MS16401, 63 µg/mL (≈ 153 µM); in the experiment with S. pneumoniae Type III, 125 µg/mL (≈ 304 µM); in the experiment with S. aureus MR5867, 31 µg/mL (≈ 75.3 µM).
As for `COc1c(N2C[C@H](CNC3CC3)[C@H](F)C2)c(F)cc2c(=O)c(C(=O)O)cn(C3CC3)c12` [Example 1, 1-cyclopropyl-7-[(3S,4S)-3-cyclopropylaminomethyl-4-fluoro-1-pyrrolidinyl]-6-fluoro-1,4-dihydro-8-methoxy-4-oxo-3-quinolinecarboxylic acid], the MIC against S. aureus Smith was 8 µg/mL (≈ 18.5 µM); with E. faecalis IID682 it was 63 µg/mL (≈ 145 µM); against S. aureus MS16401 it was 4 µg/mL (≈ 9.23 µM); with S. pneumoniae Type III it was at most 8 µg/mL; in the experiment with S. aureus MR5867, 8 µg/mL (≈ 18.5 µM).
On to `O=C(O)c1cn(C2CC2)c2c(OC(F)F)c(N3C[C@H](CNC4CC4)[C@H](F)C3)c(F)cc2c1=O` [Example 3, 1-cyclopropyl-7-[(3S,4S)-3-cyclopropylaminomethyl-4-fluoro-1-pyrrolidinyl]-6-fluoro-8-difluoromethoxy-1,4-dihydro-4-oxo-3-quinolinecarboxylic acid], for which the minimal inhibitory concentration (MIC) against S. aureus Smith was found to be 8 µg/mL (≈ 17 µM); in the experiment with E. faecalis IID682 it was 125 µg/mL (≈ 266 µM); in the experiment with S. aureus MS16401 it was 8 µg/mL (≈ 17 µM); with S. pneumoniae Type III it was 16 µg/mL (≈ 34.1 µM); in the experiment on S. aureus MR5867, 8 µg/mL (≈ 17 µM).
As for `COc1c(N2C[C@H](CNC3CC3)[C@@H](F)C2)c(F)cc2c(=O)c(C(=O)O)cn(C3CC3)c12` [Example 9, 1-cyclopropyl-7-[(3S,4R)-3-cyclopropylaminomethyl-4-fluoro-1-pyrrolidinyl]-6-fluoro-1,4-dihydro-8-methoxy-4-oxo-3-quinolinecarboxylic acid], the minimum inhibitory concentration (MIC) with S. aureus Smith is at most 8 µg/mL; in the experiment with E. faecalis IID682, 63 µg/mL (≈ 145 µM); with S. aureus MS16401, 16 µg/mL (≈ 36.9 µM); against S. pneumoniae Type III, at most 8 µg/mL; in the experiment with S. aureus MR5867 it was at most 8 µg/mL.
